Values joined by “and” are separate entries in the source; they are usually repeats but may differ in a detail not shown here. Equal entries are not always repeated.
Experiment: Accelerated and long term stability study of TTI-101 (Batch A, Batch B): HPLC assay, purity, impurities and water content after storage at 5° C., 25° C./60% RH, 30° C./65% RH or 40° C./75% RH
Assay type: physicochemical
Design: key to Impurity RRT 1.05: NQ: ≥0.02% and <0.05%; —: no peak
Description: Exemplary HPLC conditions: diluent was 0.1% trifluoroacetic acid (TFA) in acetonitrile, Mobile Phase A was 0.05% TFA in water, and Mobile Phase B was 0.05% TFA in acetonitrile, column (Agilent, Eclipse XDB-C18, 3.0×100 mm, particle size 1.8 μm), flow (0.425 mL/min), and detector (280 nm diode array).
Batch A was prepared analogously using Method 3 as described in Example 1. Batch B was prepared according to Method 5 as described in Example 1.
Samples of TTI-101 were stored at 5° C., 25° C./60% RH, 30° C./65% RH, or 40° C./75% RH. TTI-101 was stored in an LDPE bag enclosed with a Nylon cable tie and then transferred to another LDPE bag and enclosed with a Nylon cable tie. The enclosure was put into an HDPE bottle and closed with a polyethylene-lined polypropylene cap. The samples were stored under the above-identified conditions.
The samples were analyzed using HPLC with the exemplary conditions identified above. Relative retention time (RRT) for Compound 5 was about 0.83, Compound 4 was about 1.05-1.06, Compound 6 was about 1.15-1.17, and compound of formula (IV) was about 0.99.
• NA not applicable • NQ ≥0.02% and <0.05% • Avg average • Cmpd compound • — no peak • M month • RRT relative retention time

[1] = Storage 5° C., 4.5 M (25° C./60% RH) + 1.5 M (5° C.), Avg
[2] = Storage 5° C., 4.5 M (25° C./60% RH) + 1.5 M (5° C.), Prep P1-P2
[3] = Storage 5° C., 4.5 M (25° C./60% RH) + 1.5 M (5° C.), Prep P1-P2, listed as Batch B
[4] = Storage 5° C., 9 M, Prep P1-P2, listed as Batch B
[5] = Storage 25° C./60% RH, 0 M, Avg
[6] = Storage 25° C./60% RH, 0 M, Prep P1-P5
[7] = Storage 25° C./60% RH, 0 M, Prep P1-P5, listed as Batch B
[8] = Storage 25° C./60% RH, 1 M, Avg
[9] = Storage 25° C./60% RH, 1 M, Prep P1-P2
[10] = Storage 25° C./60% RH, 3 M, Avg
[11] = Storage 25° C./60% RH, 3 M, Prep P1-P2
[12] = Storage 25° C./60% RH, 3 M, Prep P1-P2, listed as Batch B
[13] = Storage 25° C./60% RH, 6 M, Avg
[14] = Storage 25° C./60% RH, 6 M, Prep P1-P2

COc1ccc(S(=O)(=O)Nc2cc(-c3c(O)ccc4ccccc34)c(O)c3ccccc23)cc1 [TTI-101]
Water Content (Storage 5° C., 0 M, Avg): 0.1%
Water Content (Storage 5° C., 0 M, Prep P1-P2): 0.1%
Impurities Total (Storage 5° C., 0 M, Prep P1-P5): 0.1 area %
Impurity RRT 0.86 (Storage 5° C., 0 M, Prep P1-P5): NQ (≥0.02% and <0.05%)
Impurity RRT 0.99 (Storage 5° C., 0 M, Prep P1-P5): NQ (≥0.02% and <0.05%)
Purity (Storage 5° C., 0 M, Prep P1-P5): 99.8%
Impurity RRT 1.16 (Cmp 6) (Storage 5° C., 0 M, Prep P1-P5, listed as Batch B): 0.08 area % and 0.07 area %
Impurities Total [1]: 0.3 area %
Impurity RRT 0.80 [1]: NQ (≥0.02% and <0.05%)
Impurity RRT 0.84 [1]: NQ (≥0.02% and <0.05%)
Impurity RRT 0.87 [1]: NQ (≥0.02% and <0.05%)
Impurity RRT 0.99 [1]: 0.05 area %
Impurity RRT 1.02 [1]: NQ (≥0.02% and <0.05%)
Impurity RRT 1.05 [1]: NQ (≥0.02% and <0.05%)
Impurity RRT 1.06 (Cmpd 4) [1]: NQ (≥0.02% and <0.05%)
Impurity RRT 1.17 (Cmp 6) [1]: 0.26 area %
Impurity RRT 1.39 [1]: NQ (≥0.02% and <0.05%)
Purity [1]: 99.6%
Water Content [1]: <0.04%
Impurity RRT 0.84 [2]: NQ (≥0.02% and <0.05%)
Impurity RRT 0.87 [2]: NQ (≥0.02% and <0.05%)
Impurity RRT 1.02 [2]: NQ (≥0.02% and <0.05%)
Impurity RRT 1.06 (Cmpd 4) [2]: NQ (≥0.02% and <0.05%)
Impurity RRT 1.39 [2]: NQ (≥0.02% and <0.05%)
Water Content [2]: <0.04%
Impurities Total [3]: 0.2 area % and 0.3 area %
Impurity RRT 1.17 (Cmp 6) [3]: 0.25 area % and 0.27 area %
Purity [3]: 99.6% and 99.5%
Assay (Storage 5° C., 9 M, Avg): 99.1%
Impurities Total (Storage 5° C., 9 M, Avg): 0.3 area %
Impurity RRT 0.84 (Storage 5° C., 9 M, Avg): NQ (≥0.02% and <0.05%)
Impurity RRT 0.87 (Storage 5° C., 9 M, Avg): NQ (≥0.02% and <0.05%)
Impurity RRT 0.99 (Storage 5° C., 9 M, Avg): 0.11 area %
Impurity RRT 1.02 (Storage 5° C., 9 M, Avg): NQ (≥0.02% and <0.05%)
Impurity RRT 1.16 (Cmp 6) (Storage 5° C., 9 M, Avg): 0.18 area %
Impurity RRT 1.39 (Storage 5° C., 9 M, Avg): NQ (≥0.02% and <0.05%)
Impurity RRT 1.47 (Storage 5° C., 9 M, Avg): NQ (≥0.02% and <0.05%)
Purity (Storage 5° C., 9 M, Avg): 99.6%
Water Content (Storage 5° C., 9 M, Avg): 0.05%
Impurities Total (Storage 5° C., 9 M, Prep P1-P2): 0.3 area %
Impurity RRT 0.87 (Storage 5° C., 9 M, Prep P1-P2): NQ (≥0.02% and <0.05%)
Impurity RRT 0.99 (Storage 5° C., 9 M, Prep P1-P2): 0.11 area %
Impurity RRT 1.02 (Storage 5° C., 9 M, Prep P1-P2): NQ (≥0.02% and <0.05%)
Impurity RRT 1.39 (Storage 5° C., 9 M, Prep P1-P2): NQ (≥0.02% and <0.05%)
Purity (Storage 5° C., 9 M, Prep P1-P2): 99.6%
Assay [4]: 98.7% and 99.4%
Impurity RRT 1.16 (Cmp 6) [4]: 0.18 area % and 0.17 area %
Water Content [4]: 0.1% and 0.05%
Assay [5]: 99.4%
Impurities Total [5]: 0.1 area %
Impurity RRT 0.61 [5]: 0.05 area %
Impurity RRT 0.86 [5]: NQ (≥0.02% and <0.05%)
Impurity RRT 0.88 [5]: NQ (≥0.02% and <0.05%)
Impurity RRT 0.99 [5]: NQ (≥0.02% and <0.05%)
Impurity RRT 1.16 (Cmp 6) [5]: 0.07 area %
Purity [5]: 99.8%
Water Content [5]: 0.1%
Water Content (Storage 25° C./60% RH, 0 M, Prep P1-P2): 0.1%
Impurities Total [6]: 0.1 area %
Impurity RRT 0.86 [6]: NQ (≥0.02% and <0.05%)
Impurity RRT 0.99 [6]: NQ (≥0.02% and <0.05%)
Purity [6]: 99.8%
Assay [7]: 99.0% and 100.5% and 99.3% and 99.5% and 98.8%
Impurity RRT 1.16 (Cmp 6) [7]: 0.08 area % and 0.07 area %
Impurities Total [8]: 0.5 area %
Impurity RRT 0.80 [8]: NQ (≥0.02% and <0.05%)
Impurity RRT 0.84 [8]: NQ (≥0.02% and <0.05%)
Impurity RRT 0.87 [8]: NQ (≥0.02% and <0.05%)
Impurity RRT 0.99 [8]: 0.10 area %
Impurity RRT 1.02 [8]: NQ (≥0.02% and <0.05%)
Impurity RRT 1.05 [8]: NQ (≥0.02% and <0.05%)
Impurity RRT 1.06 (Cmpd 4) [8]: NQ (≥0.02% and <0.05%)
Impurity RRT 1.17 (Cmp 6) [8]: 0.39 area %
Purity [8]: 99.4%
Water Content [8]: 0.1%
Impurities Total [9]: 0.5 area %
Impurity RRT 0.80 [9]: NQ (≥0.02% and <0.05%)
Impurity RRT 0.84 [9]: NQ (≥0.02% and <0.05%)
Impurity RRT 0.87 [9]: NQ (≥0.02% and <0.05%)
Impurity RRT 0.99 [9]: 0.10 area %
Impurity RRT 1.02 [9]: NQ (≥0.02% and <0.05%)
Impurity RRT 1.17 (Cmp 6) [9]: 0.39 area %
Purity [9]: 99.4%
Water Content [9]: 0.1%
Assay (Storage 25° C./60% RH, 1 M, Prep P1-P2, listed as Batch B): 99.0% and 99.2%
Assay [10]: 97.8%
Impurities Total [10]: 0.4 area %
Impurity RRT 0.48 [10]: NQ (≥0.02% and <0.05%)
Impurity RRT 0.80 [10]: NQ (≥0.02% and <0.05%)
Impurity RRT 0.84 [10]: NQ (≥0.02% and <0.05%)
Impurity RRT 0.87 [10]: NQ (≥0.02% and <0.05%)
Impurity RRT 0.99 [10]: 0.09 area %
Impurity RRT 1.02 [10]: NQ (≥0.02% and <0.05%)
Impurity RRT 1.05 [10]: —
Impurity RRT 1.06 (Cmpd 4) [10]: NQ (≥0.02% and <0.05%)
Impurity RRT 1.17 (Cmp 6) [10]: 0.33 area %
Purity [10]: 99.4%
Water Content [10]: 0.04%
Impurities Total [11]: 0.4 area %
Impurity RRT 0.80 [11]: NQ (≥0.02% and <0.05%)
Impurity RRT 0.84 [11]: NQ (≥0.02% and <0.05%)
Impurity RRT 0.87 [11]: NQ (≥0.02% and <0.05%)
Impurity RRT 0.99 [11]: 0.09 area %
Impurity RRT 1.02 [11]: NQ (≥0.02% and <0.05%)
Impurity RRT 1.05 [11]: —
Impurity RRT 1.17 (Cmp 6) [11]: 0.33 area %
Water Content [11]: 0.04%
Assay [12]: 96.8% and 98.8%
Purity [12]: 99.4% and 99.5%
Assay [13]: 98.7%
Impurities Total [13]: 0.3 area %
Impurity RRT 0.80 [13]: NQ (≥0.02% and <0.05%)
Impurity RRT 0.84 [13]: NQ (≥0.02% and <0.05%)
Impurity RRT 0.87 [13]: NQ (≥0.02% and <0.05%)
Impurity RRT 0.99 [13]: 0.05 area %
Impurity RRT 1.02 [13]: 0.05 area %
Impurity RRT 1.05 [13]: NQ (≥0.02% and <0.05%)
Impurity RRT 1.06 (Cmpd 4) [13]: NQ (≥0.02% and <0.05%)
Impurity RRT 1.17 (Cmp 6) [13]: 0.24 area %
Impurity RRT 1.39 [13]: NQ (≥0.02% and <0.05%)
Purity [13]: 99.5%
Water Content [13]: <0.04%
Impurities Total [14]: 0.3 area %
Impurity RRT 0.80 [14]: NQ (≥0.02% and <0.05%)

Source: patent publication US20240033234A1, “THERAPEUTIC COMPOUNDS, FORMULATIONS, AND USE THEREOF” (Tvardi Therapeutics, Inc., priority 2022, published 2024)
